24 compounds from patent publication US9957265B2, “N-(2-cyano heterocyclyl) pyrazolo pyridones as janus kinase inhibitors” (Merck Sharp & Dohme Corp., priority 2013, dated 2018) can be followed below.

Assay [1] concerns the target JAK1 (Homo sapiens (Human), UniProt P23458). In words: Jak Biochemical HTRF Assay (JAK1). The note with it: recombinant GST-tagged catalytic domain, [ATP] 31.8 μM, unit not given (compound concentrations tested given in nM). An excerpt: Jak Biochemical HTRF Assay Protocol
Subsequent reagent additions employed an Agilent Bravo.
A general note: Time-resolved FRET reads energy transfer from a long-lived donor to a nearby acceptor.

Assay [2] addresses JAK2 (Homo sapiens (Human), UniProt O60674). Nature of the assay: Jak Biochemical HTRF Assay (JAK2). The note with it: read-out: JAK2 IC50, recombinant GST-tagged catalytic domain, [ATP] 8.5 μM, unit not given (compound concentrations tested given in nM).

Chain of JAK2 (O60674 849-1124): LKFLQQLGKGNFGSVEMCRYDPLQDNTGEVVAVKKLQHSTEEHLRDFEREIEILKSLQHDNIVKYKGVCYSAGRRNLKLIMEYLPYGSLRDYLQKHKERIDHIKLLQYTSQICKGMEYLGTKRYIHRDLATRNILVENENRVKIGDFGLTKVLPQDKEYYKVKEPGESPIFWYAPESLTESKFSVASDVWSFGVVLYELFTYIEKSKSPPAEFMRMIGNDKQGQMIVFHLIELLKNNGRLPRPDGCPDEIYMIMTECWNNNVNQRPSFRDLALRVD
Chain of JAK1 (P23458 875-1153): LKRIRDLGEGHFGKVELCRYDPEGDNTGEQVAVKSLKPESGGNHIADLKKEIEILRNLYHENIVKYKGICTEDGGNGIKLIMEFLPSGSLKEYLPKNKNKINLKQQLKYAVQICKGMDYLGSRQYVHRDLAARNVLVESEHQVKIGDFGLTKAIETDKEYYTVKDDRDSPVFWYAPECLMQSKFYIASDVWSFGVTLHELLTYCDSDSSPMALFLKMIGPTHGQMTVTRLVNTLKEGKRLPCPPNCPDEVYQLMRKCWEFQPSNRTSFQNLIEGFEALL

In the case of `CN(C(C)(C)C)S(=O)(=O)c1ccc(Nc2nn([C@H]3COCC[C@@H]3C#N)c3cc[nH]c(=O)c23)cc1` [Example 1-12, N-(tert-butyl)-4-((1-((3R,4S)-4-cyanotetrahydro-2H-pyran-3-yl)-4-oxo-4,5-dihydro-1H-pyrazolo[4,3-c]pyridin-3-yl)amino)-N-methylbenzenesulfonamide], the values for the IC50 in assay [1] and in assay [2] were 0.1 nM and 0.3 nM, respectively.
For `CC(C)(C)S(=O)(=O)c1ccc(Nc2nn([C@H]3COCC[C@@H]3C#N)c3cc[nH]c(=O)c23)cc1` [Example 1-13], in that order: 0.08 nM and 0.21 nM.
For `CC(C)CN1Cc2ccc(Nc3nn([C@H]4COCC[C@@H]4C#N)c4cc[nH]c(=O)c34)cc2C1` [Example 1-14, (3R,4S)-3-(3-{[2-(2-methylpropyl)-2,3-dihydro-1H-isoindol-5-yl]amino}-4-oxo-4,5-dihydro-1H-pyrazolo[4,3-c]pyridin-1-yl)tetrahydro-2H-pyran-4-carbonitrile], the IC50 in assay [1] turned out to be 0.22 nM; in assay [2], 0.41 nM.
For `CC(C)N1Cc2ccc(Nc3nn([C@H]4COCC[C@@H]4C#N)c4cc[nH]c(=O)c34)cc2C1` [Example 1-15, (3R,4S)-3-(3-{[2-(1-methylethyl)-2,3-dihydro-1H-isoindol-5-yl]amino}-4-oxo-4,5-dihydro-1H-pyrazolo[4,3-c]pyridin-1-yl)tetrahydro-2H-pyran-4-carbonitrile] the same measures were 0.12 nM and 0.27 nM.
For `COC(=N)c1cc(Nc2nn([C@H]3COCC[C@@H]3C#N)c3cc[nH]c(=O)c23)ccc1O` [Example 1-16, methyl 5-({1-[(3R,4S)-4-cyanotetrahydro-2H-pyran-3-yl]-4-oxo-4,5-dihydro-1H-pyrazolo[4,3-c]pyridin-3-yl}amino)-2-hydroxybenzenecarboximidoate] the same measures were 0.36 nM and 5.04 nM.
For `COc1cc(Nc2nn([C@H]3COCC[C@@H]3C#N)c3cc[nH]c(=O)c23)ccc1F` [Example 1-17, (3R,4S)-3-{3-[(4-fluoro-3-methoxyphenyl)amino]-4-oxo-4,5-dihydro-1H-pyrazolo[4,3-c]pyridin-1-yl}tetrahydro-2H-pyran-4-carbonitrile], in that order: 0.09 nM and 2.52 nM.
Consider `N#C[C@H]1CCOC[C@@H]1n1nc(Nc2ccnc(F)c2)c2c(=O)[nH]ccc21` [Example 1-30, (3R,4S)-3-{3-[(2-fluoropyridin-4-yl)amino]-4-oxo-4,5-dihydro-1H-pyrazolo[4,3-c]pyridin-1-yl}tetrahydro-2H-pyran-4-carbonitrile], for which the IC50 in assay [1] turned out to be 0.25 nM; in assay [2], 4.65 nM.
For `N#Cc1ccc(Nc2nn([C@H]3COCC[C@@H]3C#N)c3cc[nH]c(=O)c23)cc1` [Example 1-31, (3R,4S)-3-{3-[(4-cyanophenyl)amino]-4-oxo-4,5-dihydro-1H-pyrazolo[4,3-c]pyridin-1-yl}tetrahydro-2H-pyran-4-carbonitrile], in that order: 0.12 nM and 0.96 nM.
For `N#Cc1ccc(Nc2nn([C@H]3COCC[C@@H]3C#N)c3cc[nH]c(=O)c23)cc1F` [Example 1-32, (3R,4S)-3-{3-[(4-cyano-3-fluorophenyl)amino]-4-oxo-4,5-dihydro-1H-pyrazolo[4,3-c]pyridin-1-yl}tetrahydro-2H-pyran-4-carbonitrile] the same measures were 0.24 nM and 2.11 nM.
For `Cc1cc(Nc2nn([C@H]3COCC[C@@H]3C#N)c3cc[nH]c(=O)c23)ccc1C(=O)N1CCC(F)(F)CC1` [Example 1-35, (3R,4S)-3-(3-((4-(4,4-difluoropiperidine-1-carbonyl)-3-methylphenyl)amino)-4-oxo-4,5-dihydro-1H-pyrazolo[4,3-c]pyridin-1-yl)tetrahydro-2H-pyran-4-carbonitrile] the same measures were 0.12 nM and 0.16 nM.
In the case of `CC(C)NC(C)(C)c1ccc(Nc2nn([C@H]3COCC[C@@H]3C#N)c3cc[nH]c(=O)c23)cc1` [Example 1-61, (3R,4S)-3-{3-[(4-{1-methyl-1-[(1-methylethyl)amino]ethyl}phenyl)amino]-4-oxo-4,5-dihydro-1H-pyrazolo[4,3-c]pyridin-1-yl}tetrahydro-2H-pyran-4-carbonitrile], the IC50 in assay [1] and in assay [2] was 0.3 nM throughout.
`N#C[C@H]1CCOC[C@@H]1n1nc(Nc2ccc3c(c2)CN(CC(F)(F)F)S3(=O)=O)c2c(=O)[nH]ccc21` [Example 1-62, (3R,4S)-3-(3-{[1,1-dioxido-2-(2,2,2-trifluoroethyl)-2,3-dihydro-1,2-benzothiazol-5-yl]amino}-4-oxo-4,5-dihydro-1H-pyrazolo[4,3-c]pyridin-1-yl)tetrahydro-2H-pyran-4-carbonitrile]: the figures for the IC50 in assay [1] and in assay [2] were 0.05 nM and 0.29 nM, respectively.
For `CC(C)(C)OC(=O)CN1Cc2cc(Nc3nn([C@H]4COCC[C@@H]4C#N)c4cc[nH]c(=O)c34)ccc2S1(=O)=O` [Example 1-64, tert-butyl [5-({1-[(3R,4S)-4-cyanotetrahydro-2H-pyran-3-yl]-4-oxo-4,5-dihydro-1H-pyrazolo[4,3-c]pyridin-3-yl}amino)-1,1-dioxido-1,2-benzisothiazol-2(3H)-yl]acetate], in that order: 0.04 nM and 0.3 nM.
For `CCC(C)(C)S(=O)(=O)c1ccc(Nc2nn([C@H]3COCC[C@@H]3C#N)c3cc[nH]c(=O)c23)cc1` [Example 1-65, (3R,4S)-3-[3-({4-[(1,1-dimethylpropyl)sulfonyl]phenyl}amino)-4-oxo-4,5-dihydro-1H-pyrazolo[4,3-c]pyridin-1-yl]tetrahydro-2H-pyran-4-carbonitrile] the same measures were 0.09 nM and 0.26 nM.
For `CN(C)S(=O)(=O)c1ccc(Nc2nn([C@H]3COCC[C@@H]3C#N)c3cc[nH]c(=O)c23)cn1` [Example 1-67, 5-({1-[(3R,4S)-4-cyanotetrahydro-2H-pyran-3-yl]-4-oxo-4,5-dihydro-1H-pyrazolo[4,3-c]pyridin-3-yl}amino)-N,N-dimethylpyridine-2-sulfonamide], in that order: 0.7 nM and 1.92 nM.
With `Cc1ccc(Nc2nn([C@H]3COCC[C@@H]3C#N)c3cc[nH]c(=O)c23)cc1C` [Example 1-68, (3R,4S)-3-{3-[(3,4-dimethylphenyl)amino]-4-oxo-4,5-dihydro-1H-pyrazolo[4,3-c]pyridin-1-yl}tetrahydro-2H-pyran-4-carbonitrile], the IC50 is 0.28 nM in assay [1] and 1.83 nM in assay [2].
`N#C[C@H]1CCOC[C@@H]1n1nc(Nc2ccc(S(=O)(=O)N3CCC3)cc2)c2c(=O)[nH]ccc21` [Example 1-69, (3R,4S)-3-(3-{[4-(azetidin-1-ylsulfonyl)phenyl]amino}-4-oxo-4,5-dihydro-1H-pyrazolo[4,3-c]pyridin-1-yl)tetrahydro-2H-pyran-4-carbonitrile]: the figures for the IC50 in assay [1] and in assay [2] were 0.08 nM and 0.3 nM, respectively.
For `CC1(C)CN(S(=O)(=O)c2ccc(Nc3nn([C@H]4COCC[C@@H]4C#N)c4cc[nH]c(=O)c34)cc2)CCO1` [Example 1-71, (3R,4S)-3-[3-({4-[(2,2-dimethylmorpholin-4-yl)sulfonyl]phenyl}amino)-4-oxo-4,5-dihydro-1H-pyrazolo[4,3-c]pyridin-1-yl]tetrahydro-2H-pyran-4-carbonitrile], in that order: 0.22 nM and 0.7 nM.
For `CC1(C)CCCN1S(=O)(=O)c1ccc(Nc2nn([C@H]3COCC[C@@H]3C#N)c3cc[nH]c(=O)c23)cc1` [Example 1-72, (3R,4S)-3-[3-({4-[(2,2-dimethylpyrrolidin-1-yl)sulfonyl]phenyl}amino)-4-oxo-4,5-dihydro-1H-pyrazolo[4,3-c]pyridin-1-yl]tetrahydro-2H-pyran-4-carbonitrile], in that order: 0.1 nM and 0.2 nM.
For `C[C@@H]1CN(S(=O)(=O)c2ccc(Nc3nn([C@H]4COCC[C@@H]4C#N)c4cc[nH]c(=O)c34)cc2)C[C@H](C)O1` [Example 1-73, (3R,4S)-3-{3-[(4-{[(cis)-2,6-dimethylmorpholin-4-yl]sulfonyl}phenyl)amino]-4-oxo-4,5-dihydro-1H-pyrazolo[4,3-c]pyridin-1-yl}tetrahydro-2H-pyran-4-carbonitrile] the same measures were 0.35 nM and 0.7 nM.
As for `CCN(C(C)(C)C)S(=O)(=O)c1ccc(Nc2nn([C@H]3COCC[C@@H]3C#N)c3cc[nH]c(=O)c23)cc1` [Example 1-79, N-(tert-butyl)-4-((1-((3R,4S)-4-cyanotetrahydro-2H-pyran-3-yl)-4-oxo-4,5-dihydro-1H-pyrazolo[4,3-c]pyridin-3-yl)amino)-N-ethylbenzenesulfonamide], the IC50 came to 0.04 nM in assay [1] and 0.08 nM in assay [2].
For `Cc1nc2ccc(Nc3nn([C@@H]4COCC[C@@H]4C#N)c4cc[nH]c(=O)c34)cc2s1` [Example 2-1, (3S,4S)-3-{3-[(2-methyl-1,3-benzothiazol-6-yl)amino]-4-oxo-4,5-dihydro-1H-pyrazolo[4,3-c]pyridin-1-yl}tetrahydro-2H-pyran-4-carbonitrile], in that order: 0.03 nM and 0.89 nM.
Turning to `CC1(C)C(=O)Nc2cc(Nc3nn([C@H]4COCC[C@@H]4C#N)c4cc[nH]c(=O)c34)ccc21` [Example 2-2, (3R,4S)-3-{3-[(3,3-dimethyl-2-oxo-2,3-dihydro-1H-indol-6-yl)amino]-4-oxo-4,5-dihydro-1H-pyrazolo [4,3-c]pyridin-1-yl}tetrahydro-2H-pyran-4-carbonitrile], the IC50 in assay [1] is 0.05 nM; in assay [2], 0.16 nM.
Regarding `CS(=O)(=O)c1cc(Nc2nn(C3COCC[C@@H]3C#N)c3cc[nH]c(=O)c23)ccc1Cl` (stereo partly drawn) [Example 3-1, (3R,4S)-3-(3-((4-chloro-3-(methylsulfonyl)phenyl)amino)-4-oxo-4,5-dihydro-1H-pyrazolo[4,3-t]pyridin-1-yl)tetrahydro-2H-pyran-4-carbonitrile], the values for the IC50 in assay [1] and in assay [2] were 1.64 nM and 7.44 nM, respectively.
